Target: T1, human GLP-1R receptor (Homo sapiens, UniProt P43220)
T1 construct: expressed in transfected cells
Assay: GLP-1R low expression cell assay (cAMP TR-FRET, CHO-K1_hGLP-1Rlow_clone10 cells)
Type: cell-based
Conditions: for EC50: cAMP TR-FRET, 30 min at 25° C.; for Emax: maximum activation relative to control GLP-1 peptide agonist
Description: Stable cell lines expressing high and low GLP-1R surface expression were generated in CHO-K1 cells transfected (Fugene 6) with a puromycin selectable DNA plasmid encoding human GLP-1R receptor (accession number: NM_002062.5) under control of an EF1A promoter. Transfected cells were seeded into 24-well plates (9,000 cells/well) containing complete medium and incubated in a humidified incubator at 37° C. with 5% carbon dioxide. After overnight incubation, medium was replaced with complete medium supplemented with puromycin (6 μg/mL) and refreshed every 2-3 days to select for stably transfected cells. Individual pools of selected cells were expanded prior to analysis for responsiveness to GLP-1 control peptide using a TR-FRET assay to detect cAMP (LANCE Ultra CAMP Assay, Perkin Elmer). Briefly, cells were collected in Versene solution, plated in 384-well plates (1,000 cells/well) and combined with serially diluted GLP-IR control peptide (10 nL) using an acoustic dispenser (ECHO). Plates were incubated for 30 minutes at 25° C. prior to the addition of EU-CAMP tracer (5 μL) and Ulight-anti-CAMP (5 μL) reagents to each well, followed by 15 minutes incubation at 25° C. TR-FRET signal was detected using an En Vision Multimode Plate Reader (excitation=320 nm; emission=615 and 655 nm). Dose-response curves were used to generate EC50 values as a measure of responsiveness to the GLP-IR control peptide. Selected cell lines were monitored for responsiveness over multiple passages to ensure stability. […] Briefly, GLP-IR expression was analyzed by flow cytometry using a fluorescein-labeled Exendin-4 peptide fluorescent probe (FLEX). Cells were harvested in Versene solution and washed 3-times with PBS+0.5% BSA before incubation with FLEX reagent (10 μM) for 2 hours at room temperature. After incubation, cells were washed 3-times in PBS+0.5% BSA before final resuspension in PBS prior to analysis by flow cytometry to measure FLEX mean fluorescence intensity (MFI) as a measure of GLP-IR expression on the cell surface.
For compound testing in the CHO-K1_hGLP-IRlow_clone10 cell line, cells were seeded in 384-well plates (1,000 cells/well). Test compounds were serially diluted in DMSO (10-point, 3-fold dilution), added to wells using an ECHO dispenser (10 nL/well) and plates were centrifuged for 1 min and agitated for 2 min at room temperature prior to 30-minute incubation at 25° C. After incubation, Eu-CAMP (5 μL) and Ulight-anti-cAMP (5 μL) reagents were added to each well, followed by centrifugation for 1 minute, agitation for 2 minutes at room temperature, and final incubation of the plates at 25° C. for 15 minutes. Plates were read using an EnVision microplate reader (excitation=320 nm; emission=615 and 655 nm). Dose-response curves were generated from duplicate wells based on percent activation calculated relative to a control GLP-1 peptide agonist that was run in parallel. EC50 values were determined by fitting percent activation as a function of compound concentration using the Hill equation (XLfit).
The compounds tested were compound samples prepared according to the General Procedures described in the Examples section.

T1 sequence (P43220 24-463): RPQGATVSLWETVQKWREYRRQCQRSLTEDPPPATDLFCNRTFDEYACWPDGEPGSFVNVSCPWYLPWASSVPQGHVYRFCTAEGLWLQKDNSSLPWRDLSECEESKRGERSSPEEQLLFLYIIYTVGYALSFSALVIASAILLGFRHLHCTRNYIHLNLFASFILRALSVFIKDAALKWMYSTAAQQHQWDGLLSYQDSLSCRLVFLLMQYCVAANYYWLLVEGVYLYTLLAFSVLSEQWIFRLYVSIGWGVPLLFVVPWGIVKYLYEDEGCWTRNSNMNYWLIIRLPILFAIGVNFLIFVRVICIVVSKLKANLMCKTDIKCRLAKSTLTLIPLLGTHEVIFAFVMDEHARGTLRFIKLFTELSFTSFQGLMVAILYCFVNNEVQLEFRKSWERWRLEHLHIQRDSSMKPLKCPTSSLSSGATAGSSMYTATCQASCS

Row | Structure (SMILES) | EC50 [nM] | Emax [%]
1 | COc1cc(C(=O)O)cc2c1nc(CN1CCC(c3cccc4c3O[C@H](c3ccc(C#N)cc3F)CO4)CC1)n2Cc1cncs1 [Compound 91, (R)-2-((4-(3-(4-cyano-2-fluorophenyl)-2,3-dihydrobenzo[b][1,4]dioxin-5-yl)piperidin-1-yl)methyl)-4-methoxy-1-(thiazol-5-ylmethyl)-1H-benzo[d]imidazole-6-carboxylic acid] | 100 to 1000 | > 85
2 | Cn1c(CN2CCC(c3cccc(OCc4ccc(C#N)cc4F)n3)CC2)nc2c(C(C)(C)O)cc(C(=O)O)cc21 [Compound 126, 2-((4-(6-((4-cyano-2-fluorobenzyl)oxy)pyridin-2-yl)piperidin-1-yl)methyl)-4-(2-hydroxypropan-2-yl)-1-methyl-1H-benzo[d]imidazole-6-carboxylic acid] | > 1000 | 50 to 85
3 | Cn1c(CN2CCC(c3cccc(F)c3OCc3ccc(Cl)cc3F)CC2)nc2c(OC(F)F)cc(C(=O)O)cc21 [Compound 140, 2-((4-(2-((4-Chloro-2-fluorobenzyl)oxy)-3-fluorophenyl)piperidin-1-yl)methyl)-4-(difluoromethoxy)-1-methyl-1H-benzo[d]imidazole-6-carboxylic acid] | 10 to 100 | > 85
4 | Cn1c(CN2CCC(c3cccc(OCc4ccc(Cl)cc4F)c3)CC2)nc2c(OC(F)F)cc(C(=O)O)cc21 [Compound 148, 2-((4-(3-((4-Chloro-2-fluorobenzyl)oxy)phenyl)piperidin-1-yl)methyl)-4-(difluoromethoxy)-1-methyl-1H-benzo[d]imidazole-6-carboxylic acid] | 100 to 1000 | > 85
5 | Cn1c(CN2CCC(c3ncccc3OCc3ccc(C#N)cc3F)CC2)nc2c(OC(F)F)cc(C(=O)O)cc21 [Compound 158, 2-((4-(3-((4-Cyano-2-fluorobenzyl)oxy)pyridin-2-yl)piperidin-1-yl)methyl)-4-(difluoromethoxy)-1-methyl-1H-benzo[d]imidazole-6-carboxylic acid] | > 1000 | 50 to 85
6 | Cn1c(CN2CCC(c3cccc(Cl)c3OCc3ccc(C#N)cc3F)CC2)nc2c(OC(F)F)cc(C(=O)O)cc21 [Compound 138, 2-((4-(3-Chloro-2-((4-cyano-2-fluorobenzyl)oxy)phenyl)piperidin-1-yl)methyl)-4-(difluoromethoxy)-1-methyl-1H-benzo[d]imidazole-6-carboxylic acid] | > 1000 | 25 to 50
7 | Cn1c(CN2CCC(c3cccnc3NCc3ccc(Cl)cc3F)CC2)nc2c(OC(F)F)cc(C(=O)O)cc21 [Compound 239, 2-((4-(2-((4-Chloro-2-fluorobenzyl)amino)pyridin-3-yl)piperidin-1-yl)methyl)-4-(difluoromethoxy)-1-methyl-1H-benzo[d]imidazole-6-carboxylic acid] | > 1000 | 50 to 85
8 | Cn1c(CN2CCC(c3cccc4c3O[C@@](C)(c3ccc(Cl)cn3)O4)CC2)nc2c(C(C)(F)F)cc(C(=O)O)cc21 [Compound 87, (S)-2-((4-(2-(5-Chloropyridin-2-yl)-2-methylbenzo[d][1,3]dioxol-4-yl)piperidin-1-yl)methyl)-4-(1,1-difluoroethyl)-1-methyl-1H-benzo[d]imidazole-6-carboxylic acid] | 100 to 1000 | > 85

Other lines, results leading:

Row | EC50 [nM] | Emax [%] | Structure (SMILES)
9 | 10 to 100 | > 85 | Cn1c(CN2CCC(c3cccc(OCc4ccc(C(F)(F)F)cc4F)n3)CC2)nc2c(OC(F)F)cc(C(=O)O)cc21 [Compound 223]
10 | < 10 | > 85 | CO/N=C/c1ccc(COc2cccc(C3CCN(Cc4nc5c(OC)cc(C(=O)O)cc5n4C[C@@H]4CCO4)CC3)n2)c(F)c1 [Compound 9, (S)-2-((4-(6-((2-Fluoro-4-((methoxyimino)methyl)benzyl)oxy)pyridin-2-yl)piperidin-1-yl)methyl)-4-methoxy-1-(oxetan-2-ylmethyl)-1H-benzo[d]imidazole-6-carboxylic acid]
11 | 10 to 100 | > 85 | Cn1c(CN2CCC(c3cccc(OCc4c(F)cc(Cl)cc4F)n3)CC2)nc2c(OC(F)F)cc(C(=O)O)cc21 [Compound 153, 2-((4-(6-((4-Chloro-2,6-difluorobenzyl)oxy)pyridin-2-yl)piperidin-1-yl)methyl)-4-(difluoromethoxy)-1-methyl-1H-benzo[d]imidazole-6-carboxylic acid]
12 | 10 to 100 | > 85 | CCOc1cc(C(=O)O)cc2c1nc(CN1CCC(c3cccc4c3OC[C@@H](c3ccc(C#N)cc3F)O4)CC1)n2C [Compound 276, (R)-2-((4-(2-(4-Cyano-2-fluorophenyl)-2,3-dihydrobenzo[b][1,4]dioxin-5-yl)piperidin-1-yl)methyl)-4-ethoxy-1-methyl-1H-benzo[d]imidazole-6-carboxylic acid]
13 | 10 to 100 | > 85 | Cn1c(Cc2ccc(-c3cccc(OCc4ccc(Cl)cc4F)n3)cc2F)nc2c(OC(F)F)cc(C(=O)O)cc21 [Compound 198, 2-(4-(6-((4-Chloro-2-fluorobenzyl)oxy)pyridin-2-yl)-2-fluorobenzyl)-4-(difluoromethoxy)-1-methyl-1H-benzo[d]imidazole-6-carboxylic acid]
14 | < 10 | 50 to 85 | COc1cc(-c2nnn[nH]2)cc2c1nc(CN1CCC(c3cccc(OCc4ccc(Cl)cc4F)n3)CC1)n2C[C@@H]1CCO1 [Compound 279, (S)-2-((4-(6-((4-Chloro-2-fluorobenzyl)oxy)pyridin-2-yl)piperidin-1-yl)methyl)-4-methoxy-1-(oxetan-2-ylmethyl)-6-(1H-tetrazol-5-yl)-1H-benzo[d]imidazole]
15 | < 10 | > 85 | COc1cc(C(=O)O)cc2c1nc(Cc1ccc(-c3cccc(OCc4ccc(Cl)cc4F)n3)cc1F)n2C [Compound 292, 2-(4-(6-((4-Chloro-2-fluorobenzyl)oxy)pyridin-2-yl)-2-fluorobenzyl)-4-methoxy-1-methyl-1H-benzo[d]imidazole-6-carboxylic acid]
16 | < 10 | > 85 | Cn1c(CN2CCC(c3cccc(OCc4ccc(C#N)cc4F)n3)CC2)nc2c(O)cc(C(=O)O)cc21 [Compound 114, 2-((4-(6-((4-Cyano-2-fluorobenzyl)oxy)pyridin-2-yl)piperidin-1-yl)methyl)-4-hydroxy-1-methyl-1H-benzo[d]imidazole-6-carboxylic acid]
17 | < 10 | > 85 | CCOc1cc(C(=O)O)cc2c1nc(Cc1ccc(-c3cccc(OCc4ccc(C#N)cc4F)n3)cc1F)n2C [Compound 293, 2-(4-(6-((4-Cyano-2-fluorobenzyl)oxy)pyridin-2-yl)-2-fluorobenzyl)-4-ethoxy-1-methyl-1H-benzo[d]imidazole-6-carboxylic acid]
18 | < 10 | > 85 | N#Cc1ccc(COc2cccc(C3CCN(Cc4nc5c(O)cc(C(=O)O)cc5n4Cc4cncs4)CC3)n2)c(F)c1 [Compound 82, 2-((4-(6-((4-Cyano-2-fluorobenzyl)oxy)pyridin-2-yl)piperidin-1-yl)methyl)-4-hydroxy-1-(thiazol-5-ylmethyl)-1H-benzo[d]imidazole-6-carboxylic acid]
19 | < 10 | > 85 | C[C@H](F)Oc1cc(C(=O)O)cc2c1nc(CN1CCC(c3cccc(OCc4ccc(Cl)cc4F)n3)CC1)n2C (single isomer, unassigned) [Compound 360]
